The nature of data set [1]: Turbidity of crude library peptides (absorbance at 600 nm). In kind it is physicochemical. The note with it: Physical stability of peptides. Put shortly:
(§1)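 Values reflect mean ThT emission (ex 450, em 480 nm) over 72 h at 40° C, read every 10 min after 5 min shaking at 700 rpm, plus a single initial absorbance at 600 nm for turbidity. Peptides were at 267 μM, pH 4.0 acetate or pH 7.0 phosphate (50 mM), with 4 μM ThT.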

The nature of data set [2]: Fibril formation of crude library peptides (Thioflavin T). The note with it: Physical stability of peptides. Format: physicochemical. Set-up: key: average ThT fluorescence emission at 480 nm (ex 450 nm), raw units. A digest of the protocol:
as §1

A further data set has as its target GLP1R (Homo sapiens, UniProt P43220). In words: hGLP1R potency, cAMP accumulation in CHO-K1 cells stably overexpressing hGLP1R. In kind it is cell-based. Set-up: host or cells: CHO-K1. Particulars: for EC50: cAMP accumulation, CHO-K1 cells overexpressing hGLP1R, read-out: hGLP1R pEC50 (converted); for SCTR EC50/GLP1R EC50 ratio: selectivity for hGLP1R over hSCTR, cAMP accumulation in CHO-K1 cells. A digest of the protocol: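 Potency reflects cAMP accumulation measured by time-resolved fluorescence energy transfer after a 30 min room-temperature stimulation in IBMX-containing (0.5 mM) DPBS with casein. Purified peptides were tested in duplicate over eleven threefold dilutions, and EC50 was obtained from sigmoid concentration-response fitting.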
In general terms: cAMP levels reflect the balance of adenylyl cyclase and phosphodiesterase activity.

In a further data set the target is SCTR (Homo sapiens, UniProt P47872). Nature of the data set: hSCTR potency, cAMP accumulation in CHO-K1 cells stably overexpressing hSCTR. In kind it is cell-based. Set-up: alternatively Euroscreen ES-712-AF; FAST-0161L; host or cells: CHO-K1. The note with it: cAMP accumulation, CHO-K1 cells overexpressing hSCTR; read-out: hSCTR pEC50 (converted). Put shortly: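 Potency reflects cAMP accumulation after 30 min agonist exposure at room temperature in hSCTR-expressing CHO-K1 cells, with 0.5 mM IBMX present to block phosphodiesterase. EC50 was derived by nonlinear regression.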

Numbered stars: 1 amine (or outer) side, 2 acyl side, 3 side chain; on linkers, the order of the positions; unused ones are H or OH. Square brackets hold non-standard residues; d marks the D form. Side chains are listed from the residue outwards. Peptide text beside a SMILES is read from it. * marks the point of attachment. C20 diacid = O=C(O)CCCCCCCCCCCCCCCCCCC(=O)*; γGlu = O=C(O)[C@H](CCC(=O)[*:2])N[*:1]; AEEA = NCCOCCOCC(=O)O; Aib = CC(C)(N)C(=O)O

Chain of SCTR (P47872 23-440): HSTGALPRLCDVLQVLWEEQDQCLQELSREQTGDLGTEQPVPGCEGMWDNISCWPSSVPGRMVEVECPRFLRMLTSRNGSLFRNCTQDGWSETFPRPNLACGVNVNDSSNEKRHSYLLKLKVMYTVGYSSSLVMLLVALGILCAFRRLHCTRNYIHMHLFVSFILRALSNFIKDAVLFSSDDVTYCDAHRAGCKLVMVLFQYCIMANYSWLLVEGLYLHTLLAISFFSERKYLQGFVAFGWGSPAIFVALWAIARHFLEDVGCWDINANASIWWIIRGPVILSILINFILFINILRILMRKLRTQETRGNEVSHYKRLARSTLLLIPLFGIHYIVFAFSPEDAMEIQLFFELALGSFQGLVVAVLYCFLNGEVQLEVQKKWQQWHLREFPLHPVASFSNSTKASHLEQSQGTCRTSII
Chain of GLP1R (P43220 24-463): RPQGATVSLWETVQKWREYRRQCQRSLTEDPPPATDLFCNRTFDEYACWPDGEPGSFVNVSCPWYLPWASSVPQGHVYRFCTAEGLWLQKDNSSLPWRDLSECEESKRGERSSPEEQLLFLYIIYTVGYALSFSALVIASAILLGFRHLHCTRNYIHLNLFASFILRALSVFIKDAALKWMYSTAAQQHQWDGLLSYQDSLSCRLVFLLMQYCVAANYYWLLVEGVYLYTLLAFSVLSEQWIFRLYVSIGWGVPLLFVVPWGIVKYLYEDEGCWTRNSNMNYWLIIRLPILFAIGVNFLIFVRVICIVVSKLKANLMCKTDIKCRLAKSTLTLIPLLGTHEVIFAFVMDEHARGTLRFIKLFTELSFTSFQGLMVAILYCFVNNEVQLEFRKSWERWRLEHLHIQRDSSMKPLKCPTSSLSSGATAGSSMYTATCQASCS

Turning to `CC[C@H](C)[C@H](NC(=O)[C@H](CC(=O)O)NC(=O)[C@H](CO)NC(=O)[C@@H](NC(=O)[C@H](Cc1ccccc1)NC(=O)[C@@H](NC(=O)CNC(=O)[C@H](CCC(=O)O)NC(=O)C(C)(C)NC(=O)[C@@H](N)Cc1c[nH]cn1)[C@@H](C)O)[C@@H](C)O)C(=O)N[C@@H](CO)C(=O)N[C@@H](Cc1ccc(O)cc1)C(=O)N[C@@H](CC(C)C)C(=O)N[C@@H](CCCCNC(=O)COCCOCCNC(=O)COCCOCCNC(=O)CC[C@H](NC(=O)CCCCCCCCCCCCCCCCCCC(=O)O)C(=O)O)C(=O)N[C@@H](CCC(=O)O)C(=O)N[C@@H](CCC(=O)O)C(=O)N[C@@H](C)C(=O)NC(C)(C)C(=O)N[C@@H](CC(C)C)C(=O)N[C@@H](CCC(N)=O)C(=O)N[C@@H](CCCNC(=N)N)C(=O)N[C@@H](Cc1ccccc1)C(=O)N[C@@H](CC(C)C)C(=O)N[C@@H](CCC(=O)O)C(=O)N[C@@H](Cc1c[nH]cn1)C(=O)N[C@@H](CC(C)C)C(=O)N[C@H](C(N)=O)C(C)C` [compound 114] (H-H[Aib]EGTFTSDISYLK([AEEA-AEEA-γGlu-C20 diacid])EEA[Aib]LQRFLEHLV-NH2), the “Turbidity (pH 7)” value in data set [1] is given as 0.08. In data set [2], the Fibril formation was determined as 4292. At GLP1R, the EC50 was 0.01 nM and the “SCTR EC50/GLP1R EC50 ratio” value is given as 3608. For the same compound, the EC50 at SCTR was 39.8 nM.
Turning to `CC[C@H](C)[C@H](NC(=O)[C@H](Cc1ccccc1)NC(=O)[C@H](CCCNC(=N)N)NC(=O)[C@H](CCC(N)=O)NC(=O)[C@H](CC(C)C)NC(=O)[C@H](C)NC(=O)[C@H](C)NC(=O)CNC(=O)[C@H](CCC(=O)O)NC(=O)[C@H](CC(C)C)NC(=O)[C@H](CC(C)C)NC(=O)[C@H](CCCNC(=N)N)NC(=O)[C@H](CO)NC(=O)[C@@H](NC(=O)[C@H](CC(=O)O)NC(=O)[C@H](CO)NC(=O)[C@@H](NC(=O)[C@H](Cc1ccccc1)NC(=O)[C@@H](NC(=O)CNC(=O)[C@H](CCC(=O)O)NC(=O)C(C)(C)NC(=O)[C@@H](N)Cc1c[nH]cn1)[C@@H](C)O)[C@@H](C)O)[C@@H](C)CC)C(=O)N[C@@H](CCC(N)=O)C(=O)N[C@@H](Cc1c[nH]c2ccccc12)C(=O)N[C@@H](CC(C)C)C(=O)N[C@H](C(N)=O)C(C)C` [compound 115] (H-H[Aib]EGTFTSDISRLLEGAALQRFIQWLV-NH2), the “Turbidity (pH 7)” value in data set [1] came to 0.48. This compound also yielded a Fibril formation in data set [2] of 6433. Also, on GLP1R, the EC50 is 0.0398 nM and the “SCTR EC50/GLP1R EC50 ratio” value was 459. Also, the EC50 at SCTR was 15.8 nM.
The like results for `CC[C@H](C)[C@H](NC(=O)[C@H](Cc1ccccc1)NC(=O)[C@H](CCCNC(=N)N)NC(=O)[C@H](CCC(N)=O)NC(=O)[C@H](CC(C)C)NC(=O)[C@H](C)NC(=O)[C@H](C)NC(=O)CNC(=O)[C@H](CCC(=O)O)NC(=O)[C@H](CC(C)C)NC(=O)[C@H](CC(C)C)NC(=O)[C@@H](NC(=O)[C@H](CO)NC(=O)[C@@H](NC(=O)[C@H](CC(=O)O)NC(=O)[C@H](CO)NC(=O)[C@@H](NC(=O)[C@H](Cc1ccccc1)NC(=O)[C@@H](NC(=O)CNC(=O)[C@H](CCC(=O)O)NC(=O)C(C)(C)NC(=O)[C@@H](N)Cc1c[nH]cn1)[C@@H](C)O)[C@@H](C)O)[C@@H](C)CC)C(C)C)C(=O)N[C@@H](CCC(N)=O)C(=O)N[C@@H](Cc1c[nH]c2ccccc12)C(=O)N[C@@H](CC(C)C)C(=O)N[C@H](C(N)=O)C(C)C` [compound 116] (H-H[Aib]EGTFTSDISVLLEGAALQRFIQWLV-NH2) were, in that order, 0.42, 202498, 0.0501 nM, 1422 and 79.4 nM.
For the compound `CC[C@H](C)[C@H](NC(=O)[C@H](Cc1ccccc1)NC(=O)[C@H](CCCNC(=N)N)NC(=O)[C@H](CCC(N)=O)NC(=O)[C@H](CC(C)C)NC(=O)[C@H](C)NC(=O)[C@H](C)NC(=O)CNC(=O)[C@H](CCC(=O)O)NC(=O)[C@H](CC(C)C)NC(=O)[C@H](CC(C)C)NC(=O)[C@H](Cc1ccccc1)NC(=O)[C@H](CO)NC(=O)[C@@H](NC(=O)[C@H](CC(=O)O)NC(=O)[C@H](CO)NC(=O)[C@@H](NC(=O)[C@H](Cc1ccccc1)NC(=O)[C@@H](NC(=O)CNC(=O)[C@H](CCC(=O)O)NC(=O)C(C)(C)NC(=O)[C@@H](N)Cc1c[nH]cn1)[C@@H](C)O)[C@@H](C)O)[C@@H](C)CC)C(=O)N[C@@H](CCC(N)=O)C(=O)N[C@@H](Cc1c[nH]c2ccccc12)C(=O)N[C@@H](CC(C)C)C(=O)N[C@H](C(N)=O)C(C)C` [compound 117] (H-H[Aib]EGTFTSDISFLLEGAALQRFIQWLV-NH2), in data set [1], the “Turbidity (pH 7)” value is recorded as 0.50. Also, the Fibril formation in data set [2] was found to be 238242. For the same compound, the EC50 at GLP1R is 0.01 nM; on SCTR, 200 nM. Further, the “SCTR EC50/GLP1R EC50 ratio” value on GLP1R was 19436.
The matching figures for `CC[C@H](C)[C@H](NC(=O)[C@H](Cc1ccccc1)NC(=O)[C@H](CCCNC(=N)N)NC(=O)[C@H](CCC(N)=O)NC(=O)[C@H](CC(C)C)NC(=O)[C@H](C)NC(=O)[C@H](C)NC(=O)CNC(=O)[C@H](CCC(=O)O)NC(=O)[C@H](CC(C)C)NC(=O)[C@H](CC(C)C)NC(=O)[C@H](Cc1c[nH]c2ccccc12)NC(=O)[C@H](CO)NC(=O)[C@@H](NC(=O)[C@H](CC(=O)O)NC(=O)[C@H](CO)NC(=O)[C@@H](NC(=O)[C@H](Cc1ccccc1)NC(=O)[C@@H](NC(=O)CNC(=O)[C@H](CCC(=O)O)NC(=O)C(C)(C)NC(=O)[C@@H](N)Cc1c[nH]cn1)[C@@H](C)O)[C@@H](C)O)[C@@H](C)CC)C(=O)N[C@@H](CCC(N)=O)C(=O)N[C@@H](Cc1c[nH]c2ccccc12)C(=O)N[C@@H](CC(C)C)C(=O)N[C@H](C(N)=O)C(C)C` [compound 118] (H-H[Aib]EGTFTSDISWLLEGAALQRFIQWLV-NH2): 0.63, 143374, 0.0631 nM, 79.4 nM and 1256.
On to `CC[C@H](C)[C@H](NC(=O)[C@H](Cc1ccccc1)NC(=O)[C@H](CCCNC(=N)N)NC(=O)[C@H](CCC(N)=O)NC(=O)[C@H](CC(C)C)NC(=O)[C@H](C)NC(=O)[C@H](C)NC(=O)CNC(=O)[C@H](CCC(=O)O)NC(=O)[C@H](CC(C)C)NC(=O)[C@H](CC(C)C)NC(=O)[C@H](CCC(=O)O)NC(=O)[C@H](CO)NC(=O)[C@@H](NC(=O)[C@H](CC(=O)O)NC(=O)[C@H](CO)NC(=O)[C@@H](NC(=O)[C@H](Cc1ccccc1)NC(=O)[C@@H](NC(=O)CNC(=O)[C@H](CCC(=O)O)NC(=O)C(C)(C)NC(=O)[C@@H](N)Cc1c[nH]cn1)[C@@H](C)O)[C@@H](C)O)[C@@H](C)CC)C(=O)N[C@@H](CCC(N)=O)C(=O)N[C@@H](Cc1c[nH]c2ccccc12)C(=O)N[C@@H](CC(C)C)C(=O)N[C@H](C(N)=O)C(C)C` [compound 119] (H-H[Aib]EGTFTSDISELLEGAALQRFIQWLV-NH2), for which the “Turbidity (pH 7)” value in data set [1] is recorded as 0.12. Also, in data set [2], the Fibril formation turned out to be 13897. Besides, at GLP1R, the EC50 is 0.0251 nM and the “SCTR EC50/GLP1R EC50 ratio” value is 2127. The EC50 on SCTR was 50.1 nM.

Values taken from patent US20260201008A1, “SECRETIN-DERIVED GLP1R SELECTIVE AGONISTS” (GUBRA A/S, priority 2023, published 2026).
